Experimental data as given in patent US12059393B2, “Compositions for topical treatment of radiation dermatitis” (Akos Biosciences, Inc, priority 2022, dated 2024).

How the values were obtained:
[1] = test system: acute radiation-induced dermatitis; experiment: Blinded clinical dermatitis scoring in mouse radiation dermatitis model; assay type: in vivo, Balb/c mice; parameters: key to Dermatitis score (mean): dermatitis scale 0 to 5, 1.0-unit increments; conditions: for Dermatitis score % Change Group 4 vs. Group 3: 30 mg/mL CBD vs olive oil only; for Dermatitis score % Change Group 4 vs. Group 2: 30 mg/mL CBD vs radiation only; for Dermatitis score (mean): Group 4 (30 mg/mL CBD)
Procedure: (§1) A study was performed on mice to determine the efficacy of topically-dosed CBD in an olive oil vehicle for the treatment of acute radiation-induced dermatitis. Three different CBD dosages were used— 30 mg/mL (3 wt %), 120 mg/mL (12 wt %), and 250 mg/mL (25 wt %).
(§2) 144 female Balb/c mice with an average starting body weight (±SEM) of 17.96±0.12 grams were randomized into six (6) groups of 24 animals each, as follows:
(§3) The control group (Group 1) was not irradiated. The animals in Groups 2-6 were anesthetized via a single intraperitoneal injection of xylazine and ketamine prior to being administered a single dose of 30 Grays (Gy) of radiation directed at a 2 cm×4 cm patch of shaved dorsal skin on Day 0. Radiation was generated by a 160 kVp (15-ma) X-ray source at a focal distance of 10 cm, hardened with a 0.35 mm Cu filtration system at a rate of approximately 3.2 Gy/minute.
(§4) Dosing for animals in Groups 3-6 began on Day 0 immediately after radiation. Treatments were administered topically (0.1 mL per animal) daily from Days 0-28.
(§5) Starting on Day 8 and continuing every other day thereafter (Days 8-28), each animal was evaluated for skin redness and dermatitis, and photographed for subsequent blinded scoring of dermatitis at the completion of the study. Body weight was taken daily.
Dermatitis was measured by blinded scoring of photographs at the end of the study. Two independent observers graded the photographs, and results were reported on a scale of 0 to 5 in 1.0 unit increments. The scale is described in the table below:
Data were evaluated using one-way ANOVA with Dunnett's multiple comparisons test to compare all groups to the vehicle control group using GraphPad Prism 8.4.3 (La Jolla, CA Duration of dermatitis data was evaluated using the Chi-square test to compare all groups to the vehicle-control group and radiation only group using SigmaPlot 11.0 (Systat Software, Inc.). Statistical significance was achieved when p<0.05.
The following table provides information on the duration of moderate dermatitis, which is defined as the number of days on which scores were at least 2
Bold values indicate a decrease (improvement), and underlined values indicate an increase (worsening).

[2] = Body weight change in irradiated mice; assay type: in vivo, Balb/c mice
Procedure: as §1, §2, §3, §4, §5

[3] = 30 mg/mL CBD, 148 total animal days
[4] = 120 mg/mL CBD, 148 total animal days
[5] = 150 mg/mL CBD, 147 total animal days

**Q.** Which results are given for `C=C(C)[C@@H]1CCC(C)=C[C@H]1c1c(O)cc(CCCCC)cc1O` [CBD, 2-[(1R,6R)-6-Isopropenyl-3-methylcyclohex-2-en-1-yl]-5-pentylbenzene-1,3-diol]?
**A.** % Days ≥2 ([1]; 30 mg/mL CBD): 50.68%; Mean dermatitis scores compared against Group 2 (radiation only) and Group 3 (olive oil only) ([1]; 30 mg/mL CBD (Group 4)): consistently decreased mean dermatitis scores; Percentage of days with moderate dermatitis compared to the Olive oil only group (Group 3) ([1]; 30 mg/mL CBD (Group 4)): significantly lower; Percentages of animals with moderate or severe dermatitis ([1]; 30 mg/mL CBD (Group 4), majority of surveyed days, vs olive oil only group): reduced percentages of animals with moderate or severe dermatitis; Dermatitis score % Change Group 4 vs. Group 3 ([1]; Day 8): −22.22%; Dermatitis score % Change Group 4 vs. Group 3 ([1]; Day 10): −18.75%; Dermatitis score % Change Group 4 vs. Group 3 ([1]; Day 12): −21.62%; Dermatitis score % Change Group 4 vs. Group 3 ([1]; Day 14): −20.00%; Dermatitis score % Change Group 4 vs. Group 3 ([1]; Day 16): −23.33%; Dermatitis score % Change Group 4 vs. Group 3 ([1]; Day 18): −34.62%; Dermatitis score % Change Group 4 vs. Group 3 ([1]; Day 20): −38.10%; Dermatitis score % Change Group 4 vs. Group 3 ([1]; Day 22): −17.65%; Dermatitis score % Change Group 4 vs. Group 3 ([1]; Day 24): −23.53%; Dermatitis score % Change Group 4 vs. Group 3 ([1]; Day 26): −29.41%; Dermatitis score % Change Group 4 vs. Group 3 ([1]; Day 28): −31.25%; Dermatitis score % Change Group 4 vs. Group 2 ([1]; Day 8): 101.92%; Dermatitis score % Change Group 4 vs. Group 2 ([1]; Day 10): 10.80%; Dermatitis score % Change Group 4 vs. Group 2 ([1]; Day 12): −15.04%; Dermatitis score % Change Group 4 vs. Group 2 ([1]; Day 14): −8.78%; Dermatitis score % Change Group 4 vs. Group 2 ([1]; Day 16): −29.72%; Dermatitis score % Change Group 4 vs. Group 2 ([1]; Day 18): −35.07%; Dermatitis score % Change Group 4 vs. Group 2 ([1]; Day 20): −43.25%; Dermatitis score % Change Group 4 vs. Group 2 ([1]; Day 22): −32.46%; Dermatitis score % Change Group 4 vs. Group 2 ([1]; Day 24): −40.42%; Dermatitis score % Change Group 4 vs. Group 2 ([1]; Day 26): −42.11%; Dermatitis score % Change Group 4 vs. Group 2 ([1]; Day 28): −46.93%; Percentage of Animals with Moderate Dermatitis (≥2) ([1]; 30 mg/mL CBD, Day 8): 18.8%; Percentage of Animals with Moderate Dermatitis (≥3) ([1]; 30 mg/mL CBD, Day 8): 0%; Percentage of Animals with Moderate Dermatitis (≥2) ([1]; 30 mg/mL CBD, Day 10): 75%; Percentage of Animals with Moderate Dermatitis (≥3) ([1]; 30 mg/mL CBD, Day 10): 6.3%; Percentage of Animals with Moderate Dermatitis (≥2) ([1]; 30 mg/mL CBD, Day 12): 81.3%; Percentage of Animals with Moderate Dermatitis (≥3) ([1]; 30 mg/mL CBD, Day 12): 18.8%; Percentage of Animals with Moderate Dermatitis (≥2) ([1]; 30 mg/mL CBD, Day 14): 75%; Percentage of Animals with Moderate Dermatitis (≥3) ([1]; 30 mg/mL CBD, Day 14): 56.3%; Percentage of Animals with Moderate Dermatitis (≥2) ([1]; 30 mg/mL CBD, Day 16): 75%; Percentage of Animals with Moderate Dermatitis (≥3) ([1]; 30 mg/mL CBD, Day 16): 41.7%; Percentage of Animals with Moderate Dermatitis (≥2) ([1]; 30 mg/mL CBD, Day 18): 66.7%; Percentage of Animals with Moderate Dermatitis (≥3) ([1]; 30 mg/mL CBD, Day 18): 0%; Percentage of Animals with Moderate Dermatitis (≥2) ([1]; 30 mg/mL CBD, Day 20): 33.3%; Percentage of Animals with Moderate Dermatitis (≥3) ([1]; 30 mg/mL CBD, Day 20): 0%; Percentage of Animals with Moderate Dermatitis (≥2) ([1]; 30 mg/mL CBD, Day 22): 47.7%; Percentage of Animals with Moderate Dermatitis (≥3) ([1]; 30 mg/mL CBD, Day 22): 0%; Percentage of Animals with Moderate Dermatitis (≥2) ([1]; 30 mg/mL CBD, Day 24): 33.3%; Percentage of Animals with Moderate Dermatitis (≥3) ([1]; 30 mg/mL CBD, Day 24): 0%; Percentage of Animals with Moderate Dermatitis (≥2) ([1]; 30 mg/mL CBD, Day 26): 25%; Percentage of Animals with Moderate Dermatitis (≥3) ([1]; 30 mg/mL CBD, Day 26): 0%; Percentage of Animals with Moderate Dermatitis (≥2) ([1]; 30 mg/mL CBD, Day 28): 16.7%; Percentage of Animals with Moderate Dermatitis (≥3) ([1]; 30 mg/mL CBD, Day 28): 0%; Days <2 (animal days) [1, 3]: 73; Days ≥2 (duration of moderate dermatitis, animal days) [1, 3]: 75; % Days ≥2 ([1]; 120 mg/mL CBD): 59.46%; Percentage of Animals with Moderate Dermatitis (≥2) ([1]; 120 mg/mL CBD, Day 8): 18.8%; Percentage of Animals with Moderate Dermatitis (≥3) ([1]; 120 mg/mL CBD, Day 8): 0%; Percentage of Animals with Moderate Dermatitis (≥2) ([1]; 120 mg/mL CBD, Day 10): 87.5%; Percentage of Animals with Moderate Dermatitis (≥3) ([1]; 120 mg/mL CBD, Day 10): 6.3%; Percentage of Animals with Moderate Dermatitis (≥2) ([1]; 120 mg/mL CBD, Day 12): 93.8%; Percentage of Animals with Moderate Dermatitis (≥3) ([1]; 120 mg/mL CBD, Day 12): 50%; Percentage of Animals with Moderate Dermatitis (≥2) ([1]; 120 mg/mL CBD, Day 14): 100%; Percentage of Animals with Moderate Dermatitis (≥3) ([1]; 120 mg/mL CBD, Day 14): 75%; Percentage of Animals with Moderate Dermatitis (≥2) ([1]; 120 mg/mL CBD, Day 16): 83.3%; Percentage of Animals with Moderate Dermatitis (≥3) ([1]; 120 mg/mL CBD, Day 16): 25%; Percentage of Animals with Moderate Dermatitis (≥2) ([1]; 120 mg/mL CBD, Day 18): 83.3%; Percentage of Animals with Moderate Dermatitis (≥3) ([1]; 120 mg/mL CBD, Day 18): 8.3%; Percentage of Animals with Moderate Dermatitis (≥2) ([1]; 120 mg/mL CBD, Day 20): 58.3%; Percentage of Animals with Moderate Dermatitis (≥3) ([1]; 120 mg/mL CBD, Day 20): 0%; Percentage of Animals with Moderate Dermatitis (≥2) ([1]; 120 mg/mL CBD, Day 22): 33.3%; Percentage of Animals with Moderate Dermatitis (≥3) ([1]; 120 mg/mL CBD, Day 22): 0%; Percentage of Animals with Moderate Dermatitis (≥2) ([1]; 120 mg/mL CBD, Day 24): 33.3%; Percentage of Animals with Moderate Dermatitis (≥3) ([1]; 120 mg/mL CBD, Day 24): 0%; Percentage of Animals with Moderate Dermatitis (≥2) ([1]; 120 mg/mL CBD, Day 26): 33.3%; Percentage of Animals with Moderate Dermatitis (≥3) ([1]; 120 mg/mL CBD, Day 26): 0%; Percentage of Animals with Moderate Dermatitis (≥2) ([1]; 120 mg/mL CBD, Day 28): 8.3%; Percentage of Animals with Moderate Dermatitis (≥3) ([1]; 120 mg/mL CBD, Day 28): 0%; Days <2 (animal days) [1, 4]: 60; Days ≥2 (duration of moderate dermatitis, animal days) [1, 4]: 88; Days <2 (animal days) [1, 5]: 57; Days ≥2 (duration of moderate dermatitis, animal days) [1, 5]: 90; Percentage of Animals with Moderate Dermatitis (≥2) ([1]; 250 mg/mL CBD, Day 8): 12.5%; Percentage of Animals with Moderate Dermatitis (≥3) ([1]; 250 mg/mL CBD, Day 8): 6.3%; Percentage of Animals with Moderate Dermatitis (≥2) ([1]; 250 mg/mL CBD, Day 10): 75%; Percentage of Animals with Moderate Dermatitis (≥3) ([1]; 250 mg/mL CBD, Day 10): 12.5%; Percentage of Animals with Moderate Dermatitis (≥2) ([1]; 250 mg/mL CBD, Day 12): 100%; Percentage of Animals with Moderate Dermatitis (≥3) ([1]; 250 mg/mL CBD, Day 12): 62.5%; Percentage of Animals with Moderate Dermatitis (≥2) ([1]; 250 mg/mL CBD, Day 14): 93.8%; Percentage of Animals with Moderate Dermatitis (≥3) ([1]; 250 mg/mL CBD, Day 14): 93.3%; Percentage of Animals with Moderate Dermatitis (≥2) ([1]; 250 mg/mL CBD, Day 16): 93.7%; Percentage of Animals with Moderate Dermatitis (≥3) ([1]; 250 mg/mL CBD, Day 16): 75%; Percentage of Animals with Moderate Dermatitis (≥2) ([1]; 250 mg/mL CBD, Day 18): 83.3%; Percentage of Animals with Moderate Dermatitis (≥3) ([1]; 250 mg/mL CBD, Day 18): 58.3%; Percentage of Animals with Moderate Dermatitis (≥2) ([1]; 250 mg/mL CBD, Day 20): 66.7%; Percentage of Animals with Moderate Dermatitis (≥3) ([1]; 250 mg/mL CBD, Day 20): 25%; Percentage of Animals with Moderate Dermatitis (≥2) ([1]; 250 mg/mL CBD, Day 22): 33.3%; Percentage of Animals with Moderate Dermatitis (≥3) ([1]; 250 mg/mL CBD, Day 22): 0%; Percentage of Animals with Moderate Dermatitis (≥2) ([1]; 250 mg/mL CBD, Day 24): 50%; Percentage of Animals with Moderate Dermatitis (≥3) ([1]; 250 mg/mL CBD, Day 24): 0%; Percentage of Animals with Moderate Dermatitis (≥2) ([1]; 250 mg/mL CBD, Day 26): 50%; Percentage of Animals with Moderate Dermatitis (≥3) ([1]; 250 mg/mL CBD, Day 26): 0%; Percentage of Animals with Moderate Dermatitis (≥2) ([1]; 250 mg/mL CBD, Day 28): 0%; Percentage of Animals with Moderate Dermatitis (≥3) ([1]; 250 mg/mL CBD, Day 28): 0%; Dermatitis score (mean) ([1]; Day 8): 0.88; Dermatitis score (mean) ([1]; Day 10): 1.63; Dermatitis score (mean) ([1]; Day 12): 1.81; Dermatitis score (mean) ([1]; Day 14): 2.25; Dermatitis score (mean) ([1]; Day 16): 1.92; Dermatitis score (mean) ([1]; Day 18): 1.42; Dermatitis score (mean) ([1]; Day 20): 1.08; Dermatitis score (mean) ([1]; Day 22): 1.17; Dermatitis score (mean) ([1]; Day 24): 1.08; Dermatitis score (mean) ([1]; Day 26): 1.00; Dermatitis score (mean) ([1]; Day 28): 0.92; Percentage of days with moderate dermatitis compared to the irradiated group (Group 2) ([1]; all CBD-treated groups (Groups 4, 5, 6)): significantly lower; Percent weight change over time ([2]; 30 mg/mL and 120 mg/mL CBD groups, topical daily Days 0-28, FIG. 1): most closely followed the curve of the naïve group; Percent weight change, difference between CBD-treated groups and the other three groups ([2]; three CBD-treated groups (30, 120, 250 mg/mL)): not found to be statistically significant
